Literature values as cited in patent US20060183897A1, “Biaryl substituted triazoles as sodium channel blockers” (priority 2003, published 2006).

Tests used:
[1] = tested on: patients with peripheral nerve injury; details: continuous infusion; placebo-controlled
[2] = tested on: postherpetic neuralgia (PHN); details: intravenous
[3] = tested on: rat models of peripheral nerve injury; details: intravenous application; concentrations that do not affect general behavior and motor function

CCN(CC)CC(=O)Nc1c(C)cccc1C [lidocaine]
pain scores [1]: reduced pain scores
pain intensity associated with postherpetic neuralgia [2]: reduced pain intensity
ectopic activity in the injured nerve [3]: suppress the ectopic activity
tactile allodynia [3]: reverse the tactile allodynia
